This is an account of results in PMC8124774, “Tuning Anti-Biofilm Activity of Manganese(II) Complexes: Linking Biological Effectiveness of Heteroaromatic Complexes of Alcohol, Aldehyde, Ketone, and Carboxylic Acid with Structural Effects and Redox Activity” (International Journal of Molecular Sciences, 2021).

Experiment [1] concerns Pseudomonas aeruginosa LES B58. Briefly: broth microdilution MIC, P. aeruginosa LES B58. The format is cell-based. The conditions noted are these: P. aeruginosa LES B58, planktonic cells. The method, then:
(§1) The antimicrobial activities of the heteroaromatic ligands, Mn(II) complexes, and commercially available drug streptomycin were tested against standard bacterial strains: Staphylococcus aureus ATCC 6538P, Escherichia coli ATCC 8739, Pseudomonas aeruginosa PAO1 (biofilm model strain), and Pseudomonas aeruginosa LES B58 (clinical isolate). The P. aeruginosa PAO1 and LES B58 isolates were derived from the International Pseudomonas aeruginosa Reference Panel (http://bccm.belspo.be/about-us/bccm-lmg, accessed on 30 March 2021).
(§2) All bacteria species were cultivated in trypticase soy broth (TSB) medium (Biocorp, Warsaw, Poland) for 18 h at 37 °C with shaking (160 rpm). Overnight cultures of bacteria were diluted 1:100 into fresh TSB medium and then placed in each of the 96 wells of a microtiter transparent plate (Greiner, Monroe, NC, USA). The manganese(II) complexes—[Mn-pyOH-SO4]n, Mn-imCHO-NO3, Mn-imCHO-Cl, Mn-dipyCO-NO3—and the ligands—pyOH, pyCOOH—were prepared by dissolving compounds in distilled water. […] The starting stock solution was of 2-mM concentration.
(§3) The quantitative assay of the antibacterial activity was performed by the broth microdilution method, in 96-well microtiter plates, in order to establish the minimum inhibitory concentration (MIC). To this purpose, serial two-fold dilutions of the compounds ranging between 1 and 0.0625 mM were made. The details of the experiment were presented in our previous paper.
A general note: Dilution methods test growth across graded concentrations, often in twofold steps.

The target of experiment [2] is T1, catalase from the bovine liver (Bos taurus, UniProt P00432).
T1 construct: The catalase from the bovine liver solution; purchased Sigma–Aldrich; host or cells: bovine liver
T1 sequence (P00432 2-527 limits assumed): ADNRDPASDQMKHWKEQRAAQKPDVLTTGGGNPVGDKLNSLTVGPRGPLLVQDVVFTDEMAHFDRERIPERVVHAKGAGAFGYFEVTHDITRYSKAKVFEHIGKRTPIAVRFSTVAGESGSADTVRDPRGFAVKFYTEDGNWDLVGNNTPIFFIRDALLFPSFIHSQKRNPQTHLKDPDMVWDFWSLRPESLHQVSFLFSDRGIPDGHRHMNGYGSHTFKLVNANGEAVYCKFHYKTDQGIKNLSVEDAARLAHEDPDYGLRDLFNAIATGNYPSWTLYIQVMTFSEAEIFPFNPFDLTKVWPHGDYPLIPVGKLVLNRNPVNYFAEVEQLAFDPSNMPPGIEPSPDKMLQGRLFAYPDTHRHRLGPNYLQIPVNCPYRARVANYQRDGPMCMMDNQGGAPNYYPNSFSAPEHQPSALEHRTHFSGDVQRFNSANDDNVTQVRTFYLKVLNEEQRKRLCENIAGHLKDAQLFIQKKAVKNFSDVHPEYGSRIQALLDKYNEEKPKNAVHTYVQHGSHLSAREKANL
The experiment is described as follows: catalase activity in the presence of the Mn(II) complexes (absorbance at 240 nm). The conditions noted are these: 0.5 mM complex, vs catalase alone. It is filed as biochemical. Here is the method:
First, the complexes were incubated with the catalase in the presence of a phosphate buffer, and then hydrogen peroxide was added thereto. To study the effect of the manganese complexes on the activity of CAT, its performance, in the presence of similar concentrations of the Mn complexes (0.5 mM), was investigated. The percentage of absorbance reduction over time was recorded at 240 nm. The positive control was the catalase sample in the absence of the Mn(II) complex. Figure 12 illustrates the effect of the Mn(II) complexes on the catalase activity.
The effect of the manganese complexes on the activity of catalase (CAT) was determined using the spectrophotometric method. The decrease in absorbance due to hydrogen peroxide depletion was recorded at 240 nm by the V-780 UV-Vis/NIR spectrophotometer (Jasco, Easton, MD, USA). The tests were performed in a 50-mM potassium phosphate buffer (PBS) at 37 °C, pH = 7.0. The catalase from the bovine liver solution (Sigma–Aldrich, St. Louis, MO, USA, lyophilized powder, ≥10,000 units/mg protein) was prepared in the PBS buffer as an initial dilution of ~1000 units/mL at 37 °C. The hydrogen peroxide solution, approximately 0.03% (w/w), was prepared by dilution in the PBS buffer to achieve the absorbance close to 1 a.u, and the PBS was used as a blank. The manganese complexes were diluted in the PBS buffer to stock the concentration of 1 mM. The mixture of 500 µL of the hydrogen peroxide, 1 µL of the catalase (final 1U of catalase activity), and 500 µL of the manganese complexes, previously incubated in a water bath at 37 °C, was added to a quartz cuvette (10 mm, 1 mL), closed by a cover, and placed in the spectrophotometer. The absorbance readings were performed in 10-s intervals during the first minute of the incubation time at 37 °C. The results were presented as the dependence on the percentage of the absorbance reduction over time.

Experiment [3] relates to Staphylococcus aureus ATCC 6538P. Briefly: broth microdilution MIC, S. aureus. The conditions noted are these: S. aureus, planktonic cells. It is filed as cell-based. The method, then:
as §1, §2, §3

Values joined by “and” are separate entries in the source; they are usually repeats but may differ in a detail not shown here. Equal values may be shown once.

As usually defined, the MIC is the lowest concentration that inhibits growth of the organism. The low end stands for greater potency, the high end for weaker potency. Take `Cc1[nH]cnc1C=O.Cc1[nH]cnc1C=O.O=[N+]([O-])[O-].O=[N+]([O-])[O-].[Mn+2]` [Mn-imCHO-NO3]: the MIC in experiment [1] was > 1 mM and > 399 μg/ml. Also, in experiment [2], the “Action on catalase activity” value was “promote the catalase activity”.
In the case of `O=[N+]([O-])[O-].O=[N+]([O-])[O-].OCc1ccccn1.OCc1ccccn1.[Mn+2]` [Mn-pyOH-NO3], the MIC in experiment [1] was > 1 mM and > 397 μg/ml; in experiment [3], > 1 mM and > 397 μg/ml. In addition, in experiment [2], the “Action on catalase activity” value is “promote the catalase activity”.
